ChEMBL document CHEMBL4028904, “Discovery of a Novel Series of Tankyrase Inhibitors by a Hybridization Approach” (J Med Chem, 2017)

Columns and labels:
[1] = molecular target: T1, Poly [ADP-ribose] polymerase tankyrase-2 (Homo sapiens, UniProt Q9H2K2); experiment: Inhibition of human TNKS2 (873 to 1162 residues) assessed as reduction in NAD+ consumption by fluorescence assay
T1 sequence (Q9H2K2 whole entry): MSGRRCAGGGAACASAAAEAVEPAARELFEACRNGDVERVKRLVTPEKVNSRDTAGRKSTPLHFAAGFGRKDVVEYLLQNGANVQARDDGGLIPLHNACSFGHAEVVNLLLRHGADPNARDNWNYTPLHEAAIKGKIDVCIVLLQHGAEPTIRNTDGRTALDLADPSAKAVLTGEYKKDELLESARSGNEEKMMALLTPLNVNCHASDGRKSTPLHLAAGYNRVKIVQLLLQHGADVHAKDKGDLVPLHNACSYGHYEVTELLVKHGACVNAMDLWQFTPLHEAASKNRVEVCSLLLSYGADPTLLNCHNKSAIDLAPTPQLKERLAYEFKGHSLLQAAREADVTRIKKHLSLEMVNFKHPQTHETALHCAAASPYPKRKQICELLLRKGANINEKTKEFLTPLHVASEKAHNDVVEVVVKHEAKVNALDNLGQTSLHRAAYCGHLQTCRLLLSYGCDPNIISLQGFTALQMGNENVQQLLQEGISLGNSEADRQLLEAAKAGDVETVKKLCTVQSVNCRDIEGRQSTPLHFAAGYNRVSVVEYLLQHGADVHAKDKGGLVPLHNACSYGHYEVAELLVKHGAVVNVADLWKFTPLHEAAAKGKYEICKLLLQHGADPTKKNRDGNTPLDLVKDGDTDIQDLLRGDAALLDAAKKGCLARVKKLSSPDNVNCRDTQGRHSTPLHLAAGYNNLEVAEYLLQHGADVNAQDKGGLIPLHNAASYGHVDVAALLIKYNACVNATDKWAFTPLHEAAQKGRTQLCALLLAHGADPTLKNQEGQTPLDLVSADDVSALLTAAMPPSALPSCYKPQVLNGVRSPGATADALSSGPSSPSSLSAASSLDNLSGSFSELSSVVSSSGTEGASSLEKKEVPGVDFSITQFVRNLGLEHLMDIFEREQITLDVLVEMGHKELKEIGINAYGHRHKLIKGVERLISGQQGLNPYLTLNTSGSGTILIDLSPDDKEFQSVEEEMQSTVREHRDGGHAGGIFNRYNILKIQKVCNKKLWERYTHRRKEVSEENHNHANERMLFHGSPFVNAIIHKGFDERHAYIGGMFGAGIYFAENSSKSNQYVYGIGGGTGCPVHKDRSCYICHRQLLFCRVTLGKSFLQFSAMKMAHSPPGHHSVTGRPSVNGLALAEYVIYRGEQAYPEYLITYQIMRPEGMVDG

[2] = molecular target: T1, Poly [ADP-ribose] polymerase tankyrase-2; experiment: Inhibition of TNKS2 (unknown origin) expressed in HEK293 cells assessed as inhibition of Wnt3a-induced Wnt/beta-catenin signaling after 24 hrs by luciferase reporter gene assay; format: cell-based

IC50 [1]: 0.34 µM
IC50 [2]: > 10 µM
SMILES: N#Cc1ccc2c(c1)[nH]c(=O)n2-c1ccc(-c2nnc(-c3ccncn3)n2-c2ccccc2Cl)cc1
